Measurements taken from patent publication US20240166612A1, “ARYLTHIOETHER ACETAMIDE AND RELATED COMPOUNDS AND THEIR USE IN TREATING MEDICAL CONDITIONS” (X-Biotix Therapeutics, Inc., priority 2021, published 2024).
Values after ≈ are worked out from the molar mass of the structure shown.

Legend:
[1] = test system: P. aeruginosa PAO1 ΔmexABoprM; experiment: Broth microdilution MIC, P. aeruginosa PAO1 ΔmexABoprM; type: cell-based; details: Pseudomonas aeruginosa, PAO1, 18 h, read-out: PAO1 KO MIC
Method: (§1) Exemplary compounds from the above Examples were tested to determine their minimum inhibitory concentration (MIC) for exemplary strains of Escherichia and Pseudomonas bacteria using broth microdilution methods. Assay procedures and results are described below.
(§2) Broth microdilution assays were conducted according to Clinical and Laboratory Standards Institute guidelines (CLSI, M07-A^11: Clinical and Laboratory Standards Institute. Methods for Dilution Antimicrobial Susceptibility Tests for Bacteria that Grow Aerobically; Approved Standard-11th Edition. Wayne, PA: CLSI, 2018). Briefly, bacterial suspensions were adjusted to a density equivalent to a 0.5 McFarland standard and diluted in sterile, cation-adjusted Mueller-Hinton broth (Beckton Dickinson) to yield a final inoculum between 2×10^5 and 8×10^5 colony-forming units (CFU)/mL. An inoculum volume of 98 μL was added to wells containing 2 μL of 2-fold serial dilutions of drug (prepared in DMSO). All inoculated microdilution trays were incubated in ambient air at 37° C. for 18 h. […] Performance of the assay was monitored by the use of laboratory quality-control strains (S. aureus ATCC 29213 and P. aeruginosa ATCC 27853) and levofloxacin, a compound with a defined MIC spectrum, in accordance with CLSI guidelines (CLSI, M100Ed29: Clinical and Laboratory Standards Institute. Performance Standards for Antimicrobial Susceptibility Testing, 29th Edition. Wayne, PA: CLSI, 2018).
(§3) Multiple enterobacteriaceae strains were tested, including both wild-type strains and multi-drug resistance pump deficient mutants. Specific strains tested included the following: • Wild-type P. aeruginosa PAO1, • P. aeruginosa PAO1 ΔmexABoprM—Disabled multi-drug efflux system Δ(MexAB-OprM), • P. aeruginosa PAO397—PAO1Δ(mexAB-oprM) Δ(mexCD-oprJ) Δ(mexEF-oprN) Δ(mexJK) Δ(mexXY) ΔopmH, • P. aeruginosa LESB58—Clinical isolate; colistin-resistant, isolated in the United Kingdom in 1988 from a patient with cystic fibrosis • E. coli JW0452-3 (BW25113 JacrA::kan)—Disabled multi-drug efflux system (AcrAB-TolC).
(§4) Experimental results are provided in Table 11, which provides MIC values for wild-type P. aeruginosa PAO1 (“PAO1 WT MIC”), P. aeruginosa PAO ΔmexABoprM (“PAO1 KO MIC”), P. aeruginosa PAO397 (“PAO397 KO MIC”), P. aeruginosa LESB58 (“LESB58”), and E. coli JW0452-3 (BW25113 JacrA::kan) (“E. coli KO MIC”).

P. aeruginosa PAO397 = experiment: Broth microdilution MIC, P. aeruginosa PAO397; type: cell-based; details: Pseudomonas aeruginosa, PAO397, 18 h, read-out: PAO397 KO MIC
Method: as §1, §2, §3, §4

[2] = test system: Wild-type P. aeruginosa PAO1; experiment: Broth microdilution MIC, wild-type P. aeruginosa PAO1; type: cell-based; details: Pseudomonas aeruginosa; wild-type P. aeruginosa PAO1, 37° C., 18 h; read-out: PAO1 WT MIC
Method: as §1, §2, §3, §4

P. aeruginosa LESB58 = experiment: Broth microdilution MIC, P. aeruginosa LESB58; type: cell-based; details: Pseudomonas aeruginosa; P. aeruginosa LESB58 clinical isolate, colistin-resistant, 37° C., 18 h
Method: as §1, §2, §3, §4

[3] = biological target: T1, recombinant LpxA enzyme (P. aeruginosa) (Pseudomonas aeruginosa, UniProt Q9X6P4); experiment: LpxA in vitro substrate acylation assay with RapidFire MS analysis (P. aeruginosa); type: biochemical; details: P. aeruginosa enzyme 0.5 nM, PaACP-C10, 30 min
T1 sequence (Q9X6P4 1-258): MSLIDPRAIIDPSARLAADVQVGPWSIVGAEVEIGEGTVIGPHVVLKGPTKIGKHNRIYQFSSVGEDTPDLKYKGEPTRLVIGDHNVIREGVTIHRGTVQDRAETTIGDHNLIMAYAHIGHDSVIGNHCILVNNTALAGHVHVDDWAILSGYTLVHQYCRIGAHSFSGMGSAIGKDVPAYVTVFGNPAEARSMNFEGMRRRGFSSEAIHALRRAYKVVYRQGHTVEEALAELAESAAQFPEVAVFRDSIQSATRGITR
Method: Exemplary compounds from the above Examples were tested for ability to inhibit LpxA activity using an in vitro substrate acylation assay with RapidFire™ MS analysis. Assay procedures and results are described below.
Reactions were carried out in a final volume of 30 μL with 25 mM HEPES (pH 7.3), 150 mM NaCl, 2 mM DTT, 0.01% BSA, 5 μM UDP-GlcNac, recombinant LpxA enzyme (0.5 nM P. aeruginosa or 1.0 nM E. coli, both produced at Evotec), 0.5 μM acyl-transfer reagent (decanoyl P. aeruginosa acyl-carrier protein [PaACP-C10] or myristoyl E. coli acyl-carrier protein [EcACP-C1-4], both produced at Evotec), and 1% DMSO containing test compound. After 30 min incubation at room temperature, reactions were stopped by addition of 30 μL of 10% TCA in water.
Samples were centrifuged (4350 rpm, 4° C., 5 min), and then subjected to RapidFire™ MS analysis on an Agilent RapidFire 300 coupled to an Agilent 6460 triple-quadrupole mass spectrometer. Analytes were retained on a C4 (type A) cartridge using the following solvents and flow rates: • Pump 1—H2O with 5 mM NH4OAc at 2.0 mL/min, • Pump 2—MeOH/H2O (90/10) at 1.5 mL/min, • Pump 3—MeOH/H2O (90/10) at 0.5 mL/min, and • Pump 4—ACN (organic)/H2O (aqueous). Substrate and product of the reaction were detected in negative mode ESI-MS/MS by MRM (multiple reaction monitoring) of transitions 606.0/385.0 (UDP-GlcNAc substrate) and 776.2/385.0 (UDP-3-O—(R-3-hydroxydecanoyl)-GlcNAc product, for P. aeruginosa LpxA assay) or 832.2/385.0 (UDP-3-O—(R-3-hydroxymyristoyl)-GlcNAc product, for E. coli LpxA assay).
For IC50 determinations, peak areas of the substrate and product were compared to compute the proportion of product formed by the LpxA enzyme at each compound concentration.

Structure (SMILES)	MIC [1] [µg/mL]	MIC (P. aeruginosa PAO397) [µg/mL]	MIC [2] [µg/mL]	MIC (P. aeruginosa LESB58) [µg/mL]	IC50 [3] [nM]
CCc1ccccc1SCC(=O)N(Cc1ccc(C#N)cc1)Cc1nnc(N)o1 [Compound No. 10]	1 to 16 (≈ 2.45 to 39.3 µM)	< 1	> 64		
N#Cc1ccc(CN(Cc2nnc(N)o2)C(=O)COc2cc(F)cc(F)c2Cl)cn1 [Compound No. 18, N-((5-amino-1,3,4-oxadiazol-2-yl)methyl)-2-(2-chloro-3,5-difluorophenoxy)-N-((6-cyanopyridin-3-yl)methyl)acetamide]	1 to 16 (≈ 2.3 to 36.8 µM)	1 to 16 (≈ 2.3 to 36.8 µM)	> 64	> 64	
Cc1nnc(CN(Cc2ccc(C#N)cc2)C(=O)CSc2ccccc2Cl)o1 [Compound No. 65, 2-(2-Chlorophenyl)sulfanyl-N-[(4-cyanophenyl)methyl]-N-[(5-methyl-1,3,4-oxadiazol-2-yl)methyl]acetamide]	> 64	1 to 16 (≈ 2.42 to 38.8 µM)	> 64		
N#Cc1ccc(CN(Cc2nnc(O)o2)C(=O)CSc2ccccc2Cl)cc1 [Compound No. 66, 2-(2-Chlorophenyl)sulfanyl-N-[(4-cyanophenyl)methyl]-N-[(5-hydroxy-1,3,4-oxadiazol-2-yl)methyl]acetamide]	1 to 16 (≈ 2.41 to 38.6 µM)	< 1	> 64		
N#Cc1ccc(CN(Cc2nnc(CN)o2)C(=O)CSc2ccccc2Cl)cc1 [Compound No. 67, N-[[5-(Aminomethyl)-1,3,4-oxadiazol-2-yl]methyl]-2-(2-chlorophenyl)sulfanyl-N-[(4-cyanophenyl)methyl]acetamide]	16 to 64 (≈ 37.4 to 150 µM)	1 to 16 (≈ 2.34 to 37.4 µM)	> 64		
N#Cc1ccc(CN(Cc2nnc(N)s2)C(=O)CSc2ccccc2Cl)cc1 [Compound No. 69, N-[(5-Amino-1,3,4-thiadiazol-2-yl)methyl]-2-(2-chlorophenyl)sulfanyl-N-[(4-cyanophenyl)methyl]acetamide]	1 to 16 (≈ 2.33 to 37.2 µM)	1 to 16 (≈ 2.33 to 37.2 µM)	> 64		
N#Cc1ccc(CN(Cc2nnc(N)o2)C(=O)CSc2ncccc2Cl)cn1 [compound 12]	1 to 16 (≈ 2.4 to 38.5 µM)	< 1	> 64		
Nc1nnc(CN(Cc2ccc(=O)[nH]c2)C(=O)CSc2ccccc2Cl)o1 [compound 29]	> 64	1 to 16 (≈ 2.46 to 39.4 µM)	> 64		
CCc1ccccc1OCC(=O)N(Cc1ccc(C#N)cc1)Cc1nnc(N)o1 [compound 32]	1 to 16 (≈ 2.55 to 40.9 µM)	< 1	> 64		
N#Cc1ccc(CN(Cc2nnc(N)o2)C(=O)COc2cccc(Cl)c2Cl)c(F)c1 [compound 34]	16 to 64 (≈ 35.5 to 142 µM)	< 1	> 64		
N#Cc1ccc(CN(Cc2c[nH]cn2)C(=O)CSc2ccccc2Cl)cc1 [compound 43]	> 64	1 to 16 (≈ 2.52 to 40.3 µM)	> 64		
Nc1nnc(CN(Cc2ccc(S(N)(=O)=O)cc2)C(=O)CSc2ccccc2Cl)o1 [compound 47]	16 to 64 (≈ 34.2 to 137 µM)	< 1	> 64		
Cc1cnc(CN(Cc2ccc(C#N)cc2)C(=O)CSc2ccccc2Cl)o1 [compound 72]		1 to 16 (≈ 2.43 to 38.8 µM)	> 64		100 to 1000
[2H]C([2H])(Oc1cc(F)cc(F)c1C([2H])([2H])C([2H])([2H])[2H])C(=O)N(Cc1nnc(N)o1)Cc1ccc([N+](=O)[O-])cc1F [compound 78]			1 to 16 (≈ 2.12 to 33.9 µM)	1 to 16 (≈ 2.12 to 33.9 µM)	< 20
CCc1c(F)cc(F)cc1OCC(=O)N(Cc1ccc2c(c1)CC(=O)N2)Cc1nnc(N)o1 [compound 83]			> 64	16 to 64 (≈ 35 to 140 µM)	< 20
Nc1nnc(CN(Cc2ccc([N+](=O)[O-])cc2)C(=O)COc2cc(F)cc(F)c2C2CC2)o1 [compound 84]			16 to 64 (≈ 34.8 to 139 µM)	1 to 16 (≈ 2.18 to 34.8 µM)	< 20
Nc1nnc(CN(Cc2ccc([N+](=O)[O-])cc2F)C(=O)COc2cc(F)cc(F)c2C2CC2)o1 [compound 86]			16 to 64 (≈ 33.5 to 134 µM)	1 to 16 (≈ 2.09 to 33.5 µM)	< 20
Nc1nnc(CN(Cc2ccc([N+](=O)[O-])nc2)C(=O)COc2cc(F)cc(F)c2C2CC2)o1 [compound 87]			> 64	> 64	20 to 100
[2H]C([2H])(Oc1ccccc1C([2H])([2H])C([2H])([2H])[2H])C(=O)N(Cc1ccc(C#N)nc1)Cc1nnc(N)o1 [compound 88]			> 64	> 64	20 to 100
Nc1nnc(CN(Cc2csc([N+](=O)[O-])c2)C(=O)COc2cc(F)cc(F)c2C2CC2)o1 [compound 89]			> 64	> 64	20 to 100
[2H]C([2H])(Oc1ccccc1C([2H])([2H])C([2H])([2H])[2H])C(=O)N(Cc1nnc(N)o1)Cc1ccc([N+](=O)[O-])cc1F [compound 92]			> 64	16 to 64 (≈ 36.7 to 147 µM)	20 to 100
[2H]C([2H])(Oc1ccccc1C([2H])([2H])C([2H])([2H])[2H])C(=O)N(Cc1ccc([N+](=O)[O-])cc1)Cc1nnc(N)o1 [compound 93]			> 64	> 64	20 to 100
CCc1c(F)cc(F)cc1OCC(=O)N(Cc1ccc([N+](=O)[O-])cc1)Cc1nnc(N)o1 [compound 95]			16 to 64 (≈ 35.8 to 143 µM)	1 to 16 (≈ 2.24 to 35.8 µM)	< 20
N#Cc1ccc(CN(Cc2nnc(N)o2)C(=O)COc2cc(F)cc(F)c2Br)c(F)c1 [compound 96]			16 to 64 (≈ 32.2 to 129 µM)	1 to 16 (≈ 2.02 to 32.2 µM)	< 20
N#Cc1ccc(CN(Cc2nnc(N)o2)C(=O)c2cc3cccc(Cl)c3s2)c(F)c1 [compound 97]			> 64	> 64	> 1000
N#Cc1ccc(CN(CC(=O)N2CCOC[C@@H]2CN)C(=O)CSc2cc(F)cc(F)c2Cl)c(F)c1 [compound 106]			> 64	> 64	> 1000
N#Cc1ccc(CN(CC(=O)N[C@@H](CN)C(=O)O)C(=O)CSc2cc(F)cc(F)c2Cl)c(F)c1 [compound 107]			> 64	> 64	100 to 1000
CCc1cccc(OCC(=O)N(Cc2nnc(N)o2)Cc2ccc(C#N)cc2F)c1 [compound 110]			> 64	> 64	100 to 1000
N#Cc1ccc(CN(Cc2nnc(O)o2)C(=O)CSc2cc(OCCN)ccc2Cl)c(F)c1 [compound 116]			> 64	> 64	> 1000
